The record followed here is US9796671B2, “Aurora kinase inhibitors” (REGENTS OF THE UNIVERSITY OF MINNESOTA, priority 2012, dated 2017).

The target in series [1] is T1, Flt3 (Homo sapiens, UniProt P36888).
T1 construct: purchased Millipore
The experiment in a line: Kinase profile assay (Millipore). It counts as biochemical. The settings on record: read-out: kinase activity compared with the control. As for the experimental part:
(§1) A kinase profile assay was performed by Millipore, to examine other potential targets of Compound 1. Only Akt2 activity was suppressed more than 50% after 5 μM compound 1 treatment, compared with the control (Table 2). In addition, the kinase activity of Aurora A was decreased less than 25% at 5 μM Compound 1.

In series [2] the target is T2, CSK (Homo sapiens, UniProt P41240).
T2 construct: purchased Millipore
The series is described as follows: Kinase profile assay (Millipore). It counts as biochemical. The settings on record: 5 μM. The procedure: as §1

The target of series [3] is T3, MKK6 (Homo sapiens, UniProt P52564).
T3 construct: purchased Millipore
The experiment in a line: Kinase profile assay (Millipore). It counts as biochemical. Conditions: read-out: kinase activity compared with the control. As for the experimental part:
as §1

In series [4] the target is T4, GSK3 alpha (Homo sapiens, UniProt P49840).
T4 construct: purchased Millipore
The series is described as follows: Kinase profile assay (Millipore). The settings on record: read-out: kinase activity compared with the control. It counts as biochemical. As for the experimental part:
as §1

In series [5] the target is T5, GSK3 beta (Homo sapiens, UniProt P49841).
T5 construct: purchased Millipore
The experiment in a line: Kinase profile assay (Millipore). It counts as biochemical. Conditions: read-out: kinase activity compared with the control. As for the experimental part: as §1

Series [6] deals with T6, IKK alpha (Homo sapiens, UniProt O15111).
T6 construct: purchased Millipore
The experiment in a line: Kinase profile assay (Millipore). The format is biochemical. The settings on record: read-out: kinase activity compared with the control. The procedure: as §1

For series [7], the target named is T7, PKB alpha (Akt1) (Homo sapiens, UniProt P31749).
T7 construct: purchased Millipore
The experiment in a line: Kinase profile assay (Millipore). It counts as biochemical. The settings on record: read-out: kinase activity compared with the control. As for the experimental part:
as §1

In series [8] the target is PI3-K delta (Homo sapiens, UniProt O00329). The experiment in a line: Kinase profile assay (Millipore). It counts as biochemical. Conditions: read-out: kinase activity compared with the control. As for the experimental part:
as §1

Series [9] concerns the target T8, mTOR (Homo sapiens, UniProt P42345).
T8 construct: purchased Millipore
The series is described as follows: Kinase profile assay (Millipore). The format is biochemical. The settings on record: read-out: kinase activity compared with the control. As for the experimental part: as §1

Series [10] concerns the target T9, p70S6K (Homo sapiens, UniProt P23443).
T9 construct: purchased Millipore
The series is described as follows: Kinase profile assay (Millipore). It counts as biochemical. Conditions: read-out: kinase activity compared with the control. As for the experimental part:
as §1

Series [11] addresses T10, MSK1 (Homo sapiens, UniProt O75582).
T10 construct: purchased Millipore
The experiment in a line: Kinase profile assay (Millipore). The format is biochemical. Conditions: read-out: kinase activity compared with the control. As for the experimental part:
as §1

Series [12] has as its target T11, MSK2 (Homo sapiens, UniProt O75676).
T11 construct: purchased Millipore
The experiment in a line: Kinase profile assay (Millipore). The settings on record: read-out: kinase activity compared with the control. It counts as biochemical. The procedure:
as §1

In series [13] the target is T12, FAK (Homo sapiens, UniProt Q05397).
T12 construct: purchased Millipore
The experiment in a line: Kinase profile assay (Millipore). The settings on record: read-out: kinase activity compared with the control. It counts as biochemical. The procedure:
as §1

Series [14] addresses T13, FGFR1 (Homo sapiens, UniProt P11362).
T13 construct: purchased Millipore
The experiment in a line: Kinase profile assay (Millipore). It counts as biochemical. The settings on record: read-out: kinase activity compared with the control. As for the experimental part:
as §1

Series [15] has as its target PI3-K gamma (Homo sapiens, UniProt P48736). The experiment in a line: Kinase profile assay (Millipore). Conditions: read-out: kinase activity compared with the control. It counts as biochemical. The procedure:
as §1

In series [16] the target is PI3-K beta (Homo sapiens, UniProt P42338). The experiment in a line: Kinase profile assay (Millipore). It counts as biochemical. The settings on record: read-out: kinase activity compared with the control. As for the experimental part: as §1
In series [17] the target is T14, Fyn (Homo sapiens, UniProt P06241).
T14 construct: purchased Millipore
The series is described as follows: Kinase profile assay (Millipore). The format is biochemical. Conditions: read-out: kinase activity compared with the control. The procedure:
as §1

Series [18] deals with T15, Pim-1 (Homo sapiens, UniProt P11309).
T15 construct: purchased Millipore
The experiment in a line: Kinase profile assay (Millipore). The format is biochemical. The settings on record: read-out: kinase activity compared with the control. The procedure: as §1

The target of series [19] is T16, Aurora A (Homo sapiens, UniProt O14965).
T16 construct: purchased Millipore
T16 sequence (O14965 1-403): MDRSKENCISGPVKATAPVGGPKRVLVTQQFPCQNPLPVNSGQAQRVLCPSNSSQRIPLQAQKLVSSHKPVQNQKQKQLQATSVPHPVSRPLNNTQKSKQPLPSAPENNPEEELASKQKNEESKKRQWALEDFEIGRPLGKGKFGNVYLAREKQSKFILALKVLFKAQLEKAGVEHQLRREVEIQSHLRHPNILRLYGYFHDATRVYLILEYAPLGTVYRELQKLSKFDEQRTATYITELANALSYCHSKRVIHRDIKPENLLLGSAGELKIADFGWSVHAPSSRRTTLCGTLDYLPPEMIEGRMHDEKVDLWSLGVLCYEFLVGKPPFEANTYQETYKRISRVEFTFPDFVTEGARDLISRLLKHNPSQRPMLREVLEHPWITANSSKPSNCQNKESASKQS
The series is described as follows: Aurora A in vitro kinase assay. It counts as biochemical. The settings on record: 1 μM, compared with control. The procedure: Proteins are resolved by SDS-PAGE and transferred onto polyvinylidene difluoride membranes (Millipore, Mass.), which are blocked with nonfat milk and hybridized with specific primary antibodies. The protein bands are visualized using an enhanced chemiluminescence reagent (GE Healthcare, Pittsburgh, Pa.) after hybridization with a horseradish peroxidase-conjugated secondary antibody. […] Reactions are carried out in 1× kinase buffer (25 mM Tris-HCl pH 7.5, 5 mM beta-glycerophosphate, 2 mM dithiothreitol (DTT), 0.1 mM Na3VO4, 10 mM MgCl2 and 5 mM MnCl2) containing 100 μM ATP at 30° C. for 30 minutes. Reactions are stopped and proteins detected by Western blotting. An in vitro kinase assay was used to determine whether Compound 1 could inhibit Aurora B kinase activity using recombinant Aurora B protein and various concentrations of Compound 1. […] The effect of Compound 1 on Aurora A kinase activity using an in vitro kinase assay was also examined.

The target in series [20] is Akt1 (Homo sapiens, UniProt P31749). The experiment in a line: Akt1 in vitro kinase assay. The format is biochemical. As for the experimental part:
According to the kinase profiler assay results, Akt2 also might be a potential target of Compound 1. An Akt1 and Akt2 in vitro kinase assays was performed.

Series [21] deals with human A549 lung cancer cell xenografts. The experiment in a line: A549 xenograft in athymic nude mice, intraperitoneal. The format is in vivo. As for the experimental part: Tumor tissues from mice are embedded in a paraffin block and subjected to hematoxylin and eosin (H&E) staining and immunohistochemistry. Tumor tissues are deparaffinized and hydrated, then permeabilized with 0.5% Triton X-100/1 PBS for 10 min, hybridized with Ki-67 (1:500) as the primary antibody and an HRP-conjugated goat anti-rabbit or mouse IgG antibody is used as the secondary antibody. After developing with 3,30-diaminobenzidine, the sections are counterstained with H&E. All sections are observed by microscope and the Image-Pro Plus software (v.4) program (Media Cybernetics).
The ability of Compound 1 to inhibit the growth of human A549 lung cancer cell xenografts in athymic nude mice was then evaluated. Tumor volumes were measured twice a week and mouse weights were determined once a week. Compound 1 caused a marked reduction in tumor size in the human A549 xenograft model. In mice treated with Compound 1 at 20 mg/kg, twice a week intraperitoneally, mean tumor volumes were reduced to 164 mm^3 in comparison with control group (408 mm^3) (P<0.01). […] Moreover, the effects of Compound 1 on a tumor proliferation marker were evaluated by immunohistochemistry and H&E staining of A549 tumor tissues after the 31 days of treatment.

Akt1, sequence (P31749 whole entry, species assumed): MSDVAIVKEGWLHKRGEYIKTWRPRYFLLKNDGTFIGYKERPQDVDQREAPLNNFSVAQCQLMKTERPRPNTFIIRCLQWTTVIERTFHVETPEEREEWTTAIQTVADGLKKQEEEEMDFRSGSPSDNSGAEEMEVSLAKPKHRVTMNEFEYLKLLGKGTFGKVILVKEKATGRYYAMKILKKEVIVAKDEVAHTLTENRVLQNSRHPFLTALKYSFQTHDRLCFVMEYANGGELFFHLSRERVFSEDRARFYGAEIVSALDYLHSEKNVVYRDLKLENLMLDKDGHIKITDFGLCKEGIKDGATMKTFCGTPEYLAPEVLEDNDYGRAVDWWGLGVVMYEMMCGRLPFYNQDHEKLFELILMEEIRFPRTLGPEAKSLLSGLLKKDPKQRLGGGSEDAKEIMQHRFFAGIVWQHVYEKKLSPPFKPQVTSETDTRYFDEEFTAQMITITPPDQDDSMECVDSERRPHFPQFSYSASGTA
T13 sequence (P11362 22-822, species assumed): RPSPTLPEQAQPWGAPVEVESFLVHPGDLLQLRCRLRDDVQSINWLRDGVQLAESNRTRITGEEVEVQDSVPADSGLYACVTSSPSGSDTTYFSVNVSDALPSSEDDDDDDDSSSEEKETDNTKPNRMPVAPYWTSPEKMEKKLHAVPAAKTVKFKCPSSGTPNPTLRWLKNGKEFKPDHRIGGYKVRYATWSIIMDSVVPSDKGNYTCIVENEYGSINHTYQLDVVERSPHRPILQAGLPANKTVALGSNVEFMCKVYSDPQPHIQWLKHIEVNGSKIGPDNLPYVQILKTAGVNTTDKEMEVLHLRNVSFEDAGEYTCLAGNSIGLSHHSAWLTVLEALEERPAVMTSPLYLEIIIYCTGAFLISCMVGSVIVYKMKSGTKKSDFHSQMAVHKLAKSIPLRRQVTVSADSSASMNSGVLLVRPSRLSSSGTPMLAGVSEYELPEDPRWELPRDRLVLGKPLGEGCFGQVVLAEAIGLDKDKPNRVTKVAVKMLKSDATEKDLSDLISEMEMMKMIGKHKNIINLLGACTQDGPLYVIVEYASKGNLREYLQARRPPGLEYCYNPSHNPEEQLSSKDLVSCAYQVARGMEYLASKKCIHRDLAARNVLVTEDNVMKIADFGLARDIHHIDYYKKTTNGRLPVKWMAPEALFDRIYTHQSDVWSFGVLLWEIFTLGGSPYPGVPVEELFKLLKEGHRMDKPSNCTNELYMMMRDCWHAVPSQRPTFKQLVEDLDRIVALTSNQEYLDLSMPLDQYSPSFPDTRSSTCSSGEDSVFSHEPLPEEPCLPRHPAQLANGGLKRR
PI3-K beta, sequence (P42338 whole entry, species assumed): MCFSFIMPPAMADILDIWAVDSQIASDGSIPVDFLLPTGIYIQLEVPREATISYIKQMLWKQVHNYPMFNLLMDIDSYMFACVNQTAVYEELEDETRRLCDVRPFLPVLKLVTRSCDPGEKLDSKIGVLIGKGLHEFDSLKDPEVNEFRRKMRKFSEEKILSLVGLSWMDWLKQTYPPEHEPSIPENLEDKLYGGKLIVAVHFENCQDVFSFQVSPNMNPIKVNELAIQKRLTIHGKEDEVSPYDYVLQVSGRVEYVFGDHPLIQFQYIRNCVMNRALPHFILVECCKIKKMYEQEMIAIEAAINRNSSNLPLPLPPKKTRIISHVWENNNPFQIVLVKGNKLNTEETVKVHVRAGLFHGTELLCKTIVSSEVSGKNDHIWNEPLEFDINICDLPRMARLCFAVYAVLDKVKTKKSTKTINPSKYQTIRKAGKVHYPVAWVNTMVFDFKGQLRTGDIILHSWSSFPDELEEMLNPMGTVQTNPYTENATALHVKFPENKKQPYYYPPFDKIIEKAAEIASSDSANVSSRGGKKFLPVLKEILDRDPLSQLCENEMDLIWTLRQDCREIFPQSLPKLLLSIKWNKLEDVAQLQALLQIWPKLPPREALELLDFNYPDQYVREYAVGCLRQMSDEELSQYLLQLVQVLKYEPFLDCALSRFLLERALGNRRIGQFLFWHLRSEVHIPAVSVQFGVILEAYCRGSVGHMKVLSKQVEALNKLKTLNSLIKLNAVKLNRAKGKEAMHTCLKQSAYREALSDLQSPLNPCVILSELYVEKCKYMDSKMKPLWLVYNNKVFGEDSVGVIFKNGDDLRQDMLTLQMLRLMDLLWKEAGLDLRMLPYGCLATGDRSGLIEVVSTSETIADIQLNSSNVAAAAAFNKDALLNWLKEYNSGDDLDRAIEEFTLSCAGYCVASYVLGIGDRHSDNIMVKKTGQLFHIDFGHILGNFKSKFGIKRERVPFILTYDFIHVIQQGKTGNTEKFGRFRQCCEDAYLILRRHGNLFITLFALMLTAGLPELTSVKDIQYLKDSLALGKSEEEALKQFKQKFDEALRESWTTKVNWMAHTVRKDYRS
PI3-K beta, sequence (P27986 whole entry partner, species assumed): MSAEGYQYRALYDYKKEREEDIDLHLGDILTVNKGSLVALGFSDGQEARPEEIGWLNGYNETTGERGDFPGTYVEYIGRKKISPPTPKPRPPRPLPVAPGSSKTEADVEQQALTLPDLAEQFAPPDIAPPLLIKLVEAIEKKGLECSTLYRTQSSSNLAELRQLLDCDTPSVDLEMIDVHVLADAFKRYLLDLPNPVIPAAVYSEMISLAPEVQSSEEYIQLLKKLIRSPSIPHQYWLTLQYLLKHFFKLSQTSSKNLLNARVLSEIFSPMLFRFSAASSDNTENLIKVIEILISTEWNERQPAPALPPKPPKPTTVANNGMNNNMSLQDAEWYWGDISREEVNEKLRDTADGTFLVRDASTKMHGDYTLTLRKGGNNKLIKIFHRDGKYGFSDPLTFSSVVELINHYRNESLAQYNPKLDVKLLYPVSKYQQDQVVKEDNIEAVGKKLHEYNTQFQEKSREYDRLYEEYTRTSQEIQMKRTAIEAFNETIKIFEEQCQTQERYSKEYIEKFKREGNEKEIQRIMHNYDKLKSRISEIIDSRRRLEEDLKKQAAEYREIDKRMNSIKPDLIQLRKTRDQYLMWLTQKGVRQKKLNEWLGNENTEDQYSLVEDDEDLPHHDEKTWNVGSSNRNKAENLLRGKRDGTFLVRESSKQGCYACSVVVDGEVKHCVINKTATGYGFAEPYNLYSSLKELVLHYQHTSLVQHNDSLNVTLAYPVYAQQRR
T9 sequence (P23443 whole entry): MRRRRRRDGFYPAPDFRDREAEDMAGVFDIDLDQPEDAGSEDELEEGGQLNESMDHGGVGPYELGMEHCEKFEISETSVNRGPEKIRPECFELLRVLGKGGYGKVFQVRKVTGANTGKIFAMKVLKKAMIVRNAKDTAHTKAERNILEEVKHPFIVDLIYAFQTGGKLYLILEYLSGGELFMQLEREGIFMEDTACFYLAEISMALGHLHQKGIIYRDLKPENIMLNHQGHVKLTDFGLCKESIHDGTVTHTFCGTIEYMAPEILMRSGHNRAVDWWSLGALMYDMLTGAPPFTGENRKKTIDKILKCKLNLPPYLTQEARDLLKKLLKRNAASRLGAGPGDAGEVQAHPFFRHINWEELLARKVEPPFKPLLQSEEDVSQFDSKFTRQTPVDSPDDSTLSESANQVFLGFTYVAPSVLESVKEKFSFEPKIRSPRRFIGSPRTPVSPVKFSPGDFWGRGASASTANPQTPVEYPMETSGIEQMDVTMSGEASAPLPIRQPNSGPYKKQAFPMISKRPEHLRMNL
PI3-K delta, sequence (O00329 whole entry, species assumed): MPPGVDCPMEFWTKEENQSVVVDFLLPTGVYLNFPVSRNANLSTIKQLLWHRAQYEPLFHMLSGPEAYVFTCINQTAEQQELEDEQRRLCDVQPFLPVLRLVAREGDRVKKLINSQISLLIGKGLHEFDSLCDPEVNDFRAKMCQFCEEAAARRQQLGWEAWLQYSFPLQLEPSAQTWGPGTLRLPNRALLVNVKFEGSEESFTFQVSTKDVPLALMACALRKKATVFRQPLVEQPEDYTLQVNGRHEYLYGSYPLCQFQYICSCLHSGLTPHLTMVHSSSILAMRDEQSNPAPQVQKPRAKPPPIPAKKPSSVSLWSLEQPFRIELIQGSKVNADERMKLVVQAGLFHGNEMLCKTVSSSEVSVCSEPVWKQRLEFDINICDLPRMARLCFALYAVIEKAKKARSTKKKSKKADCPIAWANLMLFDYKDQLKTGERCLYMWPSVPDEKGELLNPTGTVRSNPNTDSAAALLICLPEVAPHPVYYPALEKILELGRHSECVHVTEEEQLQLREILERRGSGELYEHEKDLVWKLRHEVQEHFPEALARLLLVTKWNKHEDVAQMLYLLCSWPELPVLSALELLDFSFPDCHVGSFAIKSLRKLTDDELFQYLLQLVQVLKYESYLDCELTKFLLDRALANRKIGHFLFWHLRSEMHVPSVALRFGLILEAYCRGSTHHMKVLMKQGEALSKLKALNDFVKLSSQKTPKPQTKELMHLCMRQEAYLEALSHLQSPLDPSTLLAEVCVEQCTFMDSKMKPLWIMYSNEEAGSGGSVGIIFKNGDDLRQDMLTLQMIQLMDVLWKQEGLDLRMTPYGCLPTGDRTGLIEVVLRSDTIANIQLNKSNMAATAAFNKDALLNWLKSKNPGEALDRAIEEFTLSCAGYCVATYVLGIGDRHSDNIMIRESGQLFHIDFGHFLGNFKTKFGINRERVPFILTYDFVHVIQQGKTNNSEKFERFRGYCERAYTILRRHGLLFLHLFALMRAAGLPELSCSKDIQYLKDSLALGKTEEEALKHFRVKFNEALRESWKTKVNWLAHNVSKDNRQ
PI3-K delta, sequence (P27986 whole entry partner, species assumed): as the sequence (P27986 whole entry partner, species assumed) above
T7 sequence (P31749 whole entry, species assumed): as the sequence (P31749 whole entry, species assumed) above
T15 sequence (P11309 whole entry, species assumed): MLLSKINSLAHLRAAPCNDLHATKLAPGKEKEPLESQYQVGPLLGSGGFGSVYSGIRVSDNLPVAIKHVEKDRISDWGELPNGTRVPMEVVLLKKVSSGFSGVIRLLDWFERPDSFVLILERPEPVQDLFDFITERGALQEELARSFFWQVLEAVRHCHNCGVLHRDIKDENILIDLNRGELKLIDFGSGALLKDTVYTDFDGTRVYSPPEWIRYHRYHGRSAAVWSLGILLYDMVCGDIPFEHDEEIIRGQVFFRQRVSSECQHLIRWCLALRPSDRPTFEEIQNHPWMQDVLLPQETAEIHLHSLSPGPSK

As usually defined, the inhibition is the relative decrease from the control value, in per cent. As for `O=C(/C=C/c1ccc2c(c1)OCO2)/C=C1/C(=O)Nc2ccccc21` [Compound 1], the remaining activity at 5 µM in [1] came to 92%; in series [3], 129%; in series [4], 85%; in series [5], 94%; in [6], 83%; in [7] it was 68%. For the same molecule, the remaining activity at 5 µM in [8] was 105%; in series [9], 136%; in series [10], 72%; in series [11] it was 98%; in series [12], 79%; in [13], 104%. Further, the remaining activity at 5 µM in series [14] came out at 86%; in series [15] it was 100%; in series [16], 103%; in [17], 99%; in series [18], 96%. Further, in series [2], the “kinase activity compared with the control” value amounted to 110. The “effect on histone H3 (Ser10) phosphorylation by Aurora A” value in [19] is “No effect”. The same molecule returned an inhibition at 5 µM in series [20] (5 μM) of 32%. Also, in series [20] (discussion statement), the “concentration inhibiting Akt1 kinase activity in vitro” value was at least 1 µM. Also, in series [21] (20 mg/kg, twice a week intraperitoneally), the “loss of body weight” value is on record as “no obvious loss”. The same molecule yielded a mean tumor volume in series [21] (20 mg/kg, twice a week intraperitoneally, control group 408 mm^3, P<0.01) of 164 mm^3. Further, the “expression of Ki-67 in A549 tumor tissues (immunohistochemistry)” value in series [21] (after the 31 days of treatment) is recorded as “markedly decreased”.
